Laboratory results: patent publication US20180049996A1, “THERAPEUTIC AGENT FOR CHRONIC RESPIRATORY DISEASE AND COMPOSITION FOR INHIBITING CARDIAC FIBROSIS” (NIPPON HYPOX LABORATORIES INCORPORATED, priority 2015, published 2018)

Tests used:
[1] = test system: Pulmonary Fibrosis Induced by Bleomycin; assay: Gross pathology of lungs, pulmonary fibrosis induced by bleomycin; type: in vivo, male SD rats; conditions: test groups 2 and 3: bleomycin 7.5 mg/kg + HTHQ 50 or 200 mg/kg/day oral; day 20
Protocol: (§1) Bleomycin is used to produce disease-model animals of interstitial pneumonia. The bleomycin and 2,3,5-trimethylhydroquinone-1-hexyl ether (HTHQ) as the hydroquinone derivative represented by the general formula (1) described above of the present invention were simultaneously administered to male SD rats of 10 week old after birth to examine the effect of the action. The test groups consisted of the control group to which sterile saline was administered; test group 1 to which bleomycin (7.5 mg/kg body weight) alone was administered; test group 2 to which bleomycin (7.5 mg/kg body weight) and HTHQ (50 mg/kg body weight/day) were administered in combination; and test group 3 to which bleomycin (7.5 mg/kg body weight) and HTHQ (200 mg/kg body weight/day) were administered in combination.
In test groups 1 to 3, bleomycin was orally administered in a single dose. In test groups 2 and 3, 2,3,5-trimethylhydroquinone-1-hexyl ether (HTHQ) was daily orally administered for 10 or 20 days starting from 24 h after the administration of bleomycin. In test group 1, olive oil, which was used as a solvent of HTHQ, was daily orally administered at 10 mL/kg/day starting from 24 h after the administration of bleomycin. The number of animals in each group was 16. […]

[2] = test system: Pulmonary Fibrosis Induced by Bleomycin; assay: Histopathologic examination of lungs, pulmonary fibrosis induced by bleomycin; type: in vivo, male SD rats; conditions: for Severity score: Alveolar space, Bleeding / Severity score: Alveolar space, Macrophage accumulation / Severity score: Alveolar space, Protein exudation / Severity score: Alveolar wall, Fibroblast accumulation / Severity score: Alveolar wall, Fibrosis of interstitial tissue / Severity score: Alveolar wall, Interstitial edema / Severity score: Alveolar wall, Mononuclear cell infiltration / Severity score: Circumvascular region, Perivascular edema / Severity score: Circumvascular region, Plasma cell infiltration / Severity score: Peribronchial and peribronchiolar regions, Fibrosis of interstitial tissue / Severity score: Peribronchial and peribronchiolar regions, Lymphoid follicle hyperplasia / Severity score: Type II alveolar epithelial cell, Adenomatous hyperplasia / Severity score: Type II alveolar epithelial cell, Atypia and dysplasia: day 20 after bleomycin
Protocol: as §1
(§2) In test groups 1 to 3, bleomycin was orally administered in a single dose. In test groups 2 and 3, 2,3,5-trimethylhydroquinone-1-hexyl ether (HTHQ) was daily orally administered for 10 or 20 days starting from 24 h after the administration of bleomycin. In test group 1, olive oil, which was used as a solvent of HTHQ, was daily orally administered at 10 mL/kg/day starting from 24 h after the administration of bleomycin. The number of animals in each group was 16. 8 animals of each group were sacrificed on days 10 and 20 after the administration of bleomycin and measurement of body weight, lung autopsy, histopathologic examination of lungs and bronchoalveolar lavage examination were conducted.
The main lung lesions observed in the rats in test group 1 (the bleomycin-single administration group) on day 10 after the administration were the peribronchial and peribronchiola enlargement of alveoli, the hyperplasia of the alveolar wall, the infiltration of monocytes and lymphocytes in alveolar walls and interstitial tissue, and the exudation of alveolar macrophage into alveolar spaces. These lesions were alleviated in rats in test groups 2 and 3 (the HTHQ-administered groups) compared to the tissue in test group 1.
The result of the histopathologic examination of lungs of the control group and the test groups on day 20 after the administration of bleomycin is shown in Table 1 below. “−” indicates “not found”, “+” indicates “mild”, “++” indicates “moderate”, and “+++” indicates “severe” in severity scores. In test group 1 (the bleomycin-single administration group), the hyperplasia and fibrosis of peribronchial and adjacent alveolar walls became remarkable compared to the tissue on day 10 after the administration and the morphology of alveolus almost disappeared due to the infiltration of lymphocytes and neutrophils. The alveolar macrophages infiltrated within alveolar spaces were buried in surrounding tissues.

[3] = test system: Pulmonary Fibrosis Induced by Bleomycin; assay: Body weight and relative weight of lungs, pulmonary fibrosis induced by bleomycin; type: in vivo, male SD rats; conditions: test groups 2 and 3: bleomycin 7.5 mg/kg + HTHQ 50 or 200 mg/kg/day oral; day 20; compared to bleomycin-single group, p<0.05
Protocol: as §1, §2
The body weight of the rats in the control group increased over time during the test period. […] The weight of the interstitial tissue of lungs tends to increase and the relative weight of lungs tends to rise when the tissue fibroses. […] Thus, it was expected that the degree of the progression of pulmonary fibrosis of the rats in test groups 2 and 3, to which HTHQ was administered, was less than the rats in test group 1.

[4] = test system: Myocardial Disorder Induced by Doxorubicin; assay: Histopathologic examination of the hearts (light microscope), myocardial disorder induced by doxorubicin; type: in vivo, female SD rats; conditions: for Severity score: Cell infiltration in interstitial tissue / Severity score: Degeneration of myocardial cells / Severity score: Loss and disorganization of myocardial fibers / Severity score: Loss of intercalated discs / Severity score: Loss of striations / Severity score: Vacuolation of myocardial fibers: Test group 2: doxorubicin 13 mg/kg + HTHQ 50 mg/kg; for lesions of cardiac tissue (light microscope): Test group 2: doxorubicin + HTHQ 50 mg/kg, compared to test group 1
Protocol: Doxorubicin is used to produce disease-model animals of cardiomyopathy. The doxorubicin and 2,3,5-trimethylhydroquinone-1-hexyl ether (HTHQ) as the hydroquinone derivative represented by the general formula (1) described above of the present invention were simultaneously administered to female SD rats of 4 week old after birth to examine the effect of the action. The test groups consisted of the control group to which sterile saline was administered; test group 1 to which doxorubicin (13 mg/kg body weight) alone was administered; test group 2 to which doxorubicin (13 mg/kg body weight) and HTHQ (50 mg/kg body weight) were administered in combination; and test group 3 to which doxorubicin (13 mg/kg body weight), HTHQ (50 mg/kg body weight) and recombinant human erythropoietin (400 IU/kg body weight) were administered in combination. […] The test group 3 is used to confirm the presence or absence of the inhibitory effect brought about by combining HTHQ and rHuEPO on myocardial disorder.
Doxorubicin was orally administered in a single dose to the rats in test groups 1 to 3. 2,3,5-trimethylhydroquinone-1-hexyl ether (HTHQ) was orally administered to the rats in test groups 2 and 3 twice in total: 3 days before the administration of doxorubicin and on the day of the administration. Recombinant human erythropoietin was daily administered to the rats in test group 3 starting from 3 days before the administration of doxorubicin by intravenous injection. The number of animals in each group was 16. 8 animals of each group were sacrificed after collecting blood on day 7 and 14 after the administration of doxorubicin, and the autopsy of the hearts, the calculation of the relative weights of the hearts, the histopathologic examination of the hearts and the hematological examination were conducted.
“−” indicates “not found”, “+” indicates “mild”, “++” indicates “moderate”, and “+++” indicates “severe” in severity scores of the table.

[5] = Test group 2: bleomycin 7.5 mg/kg + HTHQ 50 mg/kg/day oral
[6] = Test group 3: bleomycin 7.5 mg/kg + HTHQ 200 mg/kg/day oral

CCCCCCOc1cc(C)c(O)c(C)c1C [HTHQ, 2,3,5-trimethylhydroquinone-1-hexyl ether]
gross pathology of lungs (lesions) [1]: alleviated
Severity score: Alveolar space, Bleeding [2, 5]: +
Severity score: Alveolar space, Macrophage accumulation [2, 5]: +
Severity score: Alveolar space, Protein exudation [2, 5]: +
Severity score: Alveolar wall, Fibroblast accumulation [2, 5]: ++
Severity score: Alveolar wall, Fibrosis of interstitial tissue [2, 5]: ++
Severity score: Alveolar wall, Interstitial edema [2, 5]: +
Severity score: Alveolar wall, Mononuclear cell infiltration [2, 5]: ++
Severity score: Circumvascular region, Perivascular edema [2, 5]: +
Severity score: Circumvascular region, Plasma cell infiltration [2, 5]: +
Severity score: Peribronchial and peribronchiolar regions, Fibrosis of interstitial tissue [2, 5]: +
Severity score: Peribronchial and peribronchiolar regions, Lymphoid follicle hyperplasia [2, 5]: +
Severity score: Type II alveolar epithelial cell, Adenomatous hyperplasia [2, 5]: ++
Severity score: Type II alveolar epithelial cell, Atypia and dysplasia [2, 5]: +
Severity score: Alveolar space, Bleeding [2, 6]: −
Severity score: Alveolar space, Macrophage accumulation [2, 6]: +
Severity score: Alveolar space, Protein exudation [2, 6]: ++
Severity score: Alveolar wall, Fibroblast accumulation [2, 6]: +
Severity score: Alveolar wall, Fibrosis of interstitial tissue [2, 6]: +
Severity score: Alveolar wall, Interstitial edema [2, 6]: +
Severity score: Alveolar wall, Mononuclear cell infiltration [2, 6]: ++
Severity score: Circumvascular region, Perivascular edema [2, 6]: −
Severity score: Circumvascular region, Plasma cell infiltration [2, 6]: −
Severity score: Peribronchial and peribronchiolar regions, Fibrosis of interstitial tissue [2, 6]: +
Severity score: Peribronchial and peribronchiolar regions, Lymphoid follicle hyperplasia [2, 6]: +
Severity score: Type II alveolar epithelial cell, Adenomatous hyperplasia [2, 6]: +
Severity score: Type II alveolar epithelial cell, Atypia and dysplasia [2, 6]: +
histopathologic lung lesions ([2]; test groups 2 and 3: bleomycin 7.5 mg/kg + HTHQ 50 or 200 mg/kg/day oral, day 10, compared to test group 1): alleviated
degree of histopathologic lung lesions ([2]; test groups 2 and 3: bleomycin 7.5 mg/kg + HTHQ 50 or 200 mg/kg/day oral, day 20, compared to test group 1): milder than test group 1
relative weight of lungs [3]: significantly low
Severity score: Cell infiltration in interstitial tissue ([4]; Day 7 after administration): −
Severity score: Degeneration of myocardial cells ([4]; Day 7 after administration): +
Severity score: Loss and disorganization of myocardial fibers ([4]; Day 7 after administration): +
Severity score: Loss of intercalated discs ([4]; Day 7 after administration): +
Severity score: Loss of striations ([4]; Day 7 after administration): +
Severity score: Vacuolation of myocardial fibers ([4]; Day 7 after administration): −
Severity score: Cell infiltration in interstitial tissue ([4]; Day 14 after administration): −
Severity score: Degeneration of myocardial cells ([4]; Day 14 after administration): +
Severity score: Loss and disorganization of myocardial fibers ([4]; Day 14 after administration): +
Severity score: Loss of intercalated discs ([4]; Day 14 after administration): +
Severity score: Loss of striations ([4]; Day 14 after administration): +
Severity score: Vacuolation of myocardial fibers ([4]; Day 14 after administration): +
lesions of cardiac tissue (light microscope) ([4]; day 7): alleviated
lesions of cardiac tissue (light microscope) ([4]; day 14): also alleviated
